Read-outs that look alike come from different tables or passages of the source.
Key:
SIV Mne = format: cell-based
HIV-1(MN) = format: cell-based; details: INA-treated HIV-1(MN); for Avg. Capsid Protein conc. Day 7 / Avg. Capsid Protein conc. Day 14 / Avg. Capsid Protein conc. Day 21: AA2 clone 1 cells; for Culture Result Neg / Culture Result Pos: of quadruplicate cultures
SIV = format: cell-based; details: INA-treated SIV; FIG. 5
HIV [1] = format: cell-based; details: cells exposed to INA-treated HIV; FIG. 6
HIV [2] = format: binding; details: compared with non-treated virus; p24 ELISA; FIG. 7
tumor cells = format: cell-based
EBOV-GFP = format: cell-based, Zaire Ebola virus
Zaire EBOV = format: cell-based, Zaire Ebola virus
[3] = system: influenza virus strain H3N2 (X-31); format: cell-based
neuraminidase = format: biochemical, influenza virus H3N2
influenza virus = format: cell-based
influenza HA = format: cell-based, influenza virus; details: pH 5.0
HeLa cell membrane = format: cell-based; details: HeLa cells, INA 20 or 100 μM + UV; FIG. 17

[N-]=[N+]=Nc1cccc2c(I)cccc12 [INA, 1,5-iodonaphthyl azide]
infectivity blocked (SIV Mne; 200 μM INA, SIV (P-28) and HIV (P-24) expression): 100% | production of the viral protein p28 (SIV Mne; 200 μM INA, up to 11 days after INA treatment, FIG. 4): no detectable production | 1/TCID50/ml (SIV Mne; INA-treated SIV Mne, Reed and Muench, day 21): 0 | Culture Result Pos (SIV Mne; INA-treated SIV, 1/dil 10^1, number of cultures productively infected, day 21): 0 | Culture Result Neg (SIV Mne; INA-treated SIV, 1/dil 10^1, number of cultures uninfected, day 21): 0 | viral infectivity of SIV (SIV Mne; as little as 50 μM INA, FIG. 4): reduced to essentially zero | Avg. Capsid Protein conc. Day 7 (HIV-1(MN); 1/dil 10^1): 9,201 pg/ml | Avg. Capsid Protein conc. Day 14 (HIV-1(MN); 1/dil 10^1): 0 pg/mL | Avg. Capsid Protein conc. Day 21 (HIV-1(MN); 1/dil 10^1): 0 pg/mL | Culture Result Neg (HIV-1(MN); 1/dil 10^1, day 21): 4 | Culture Result Pos (HIV-1(MN); 1/dil 10^1, day 21): 0 | Avg. Capsid Protein conc. Day 7 (HIV-1(MN); 1/dil 10^2): 0 pg/mL | Avg. Capsid Protein conc. Day 14 (HIV-1(MN); 1/dil 10^2): 0 pg/mL | Avg. Capsid Protein conc. Day 21 (HIV-1(MN); 1/dil 10^2): 0 pg/mL | Culture Result Neg (HIV-1(MN); 1/dil 10^2, day 21): 4 | Culture Result Pos (HIV-1(MN); 1/dil 10^2, day 21): 0 | Avg. Capsid Protein conc. Day 7 (HIV-1(MN); 1/dil 10^3): 0 pg/mL | Avg. Capsid Protein conc. Day 14 (HIV-1(MN); 1/dil 10^3): 0 pg/mL | Avg. Capsid Protein conc. Day 21 (HIV-1(MN); 1/dil 10^3): 0 pg/mL | Culture Result Neg (HIV-1(MN); 1/dil 10^3, day 21): 4 | Culture Result Pos (HIV-1(MN); 1/dil 10^3, day 21): 0 | Avg. Capsid Protein conc. Day 7 (HIV-1(MN); 1/dil 10^4): 0 pg/mL | Avg. Capsid Protein conc. Day 14 (HIV-1(MN); 1/dil 10^4): 0 pg/mL | Avg. Capsid Protein conc. Day 21 (HIV-1(MN); 1/dil 10^4): 0 pg/mL | Culture Result Neg (HIV-1(MN); 1/dil 10^4, day 21): 4 | Culture Result Pos (HIV-1(MN); 1/dil 10^4, day 21): 0 | Avg. Capsid Protein conc. Day 7 (HIV-1(MN); 1/dil 10^5): 0 pg/mL | Avg. Capsid Protein conc. Day 14 (HIV-1(MN); 1/dil 10^5): 0 pg/mL | Avg. Capsid Protein conc. Day 21 (HIV-1(MN); 1/dil 10^5): 0 pg/mL | Culture Result Neg (HIV-1(MN); 1/dil 10^5, day 21): 4 | Culture Result Pos (HIV-1(MN); 1/dil 10^5, day 21): 0 | Avg. Capsid Protein conc. Day 7 (HIV-1(MN); 1/dil 10^6): 0 pg/mL | Avg. Capsid Protein conc. Day 14 (HIV-1(MN); 1/dil 10^6): 0 pg/mL | Avg. Capsid Protein conc. Day 21 (HIV-1(MN); 1/dil 10^6): 0 pg/mL | Culture Result Neg (HIV-1(MN); 1/dil 10^6, day 21): 4 | Culture Result Pos (HIV-1(MN); 1/dil 10^6, day 21): 0 | 1/TCID50/ml (HIV-1(MN); Reed and Muench, day 21): 0 | fusion of SIV with the target cell at the plasma membrane level (SIV): blocked fusion of SIV with the target cell | luciferase expression in JC53BL cells (HIV [1]): substantially no luciferase expression is detected | binding of INA-treated HIV to neutralizing antibodies 2G12, B12 and 4E10 (HIV [2]): interacts substantially the same as the non-treated virus | ability of tumor cells to divide and form colonies (tumor cells): blocked their ability to divide and form colonies | concentration sufficient to inactivate EBOV completely (EBOV-GFP): 100 to 200 µM | infectivity of EBOV-GFP (EBOV-GFP; 24-96 h): complete loss of infectivity | virus growth (genome copies in culture supernatant) (Zaire EBOV): did not show any growth | infectivity of the influenza virus [3]: reduced the infectivity of the influenza virus to zero | catalytic activity of the viral envelope enzyme neuraminidase (neuraminidase): not affected | pH dependent mixing of lipids from the viral envelope with lipids of the target cell (R-18 dequenching) (influenza virus): not affected | redistribution of viral envelope proteins into the cell membrane (125INA incorporation into HA) (influenza HA): almost no detectable signal | mobile fraction of the lipid (DiO) (HeLa cell membrane): not affected | protein mobile fraction (CD4-GFP) (HeLa cell membrane): reduced to background level
